Measurements: patent US20240400579A1, “SPIROCYCLIC MODULATORS OF CHOLESTEROL BIOSYNTHESIS AND THEIR USE FOR PROMOTING REMYELINATION” (GENENTECH, INC., priority 2021, published 2024)

Columns and labels:
EpiSC-derived OPCs = test: In vitro phenotypic screening of OPCs, MBP high-content imaging; assay type: cell-based, mouse; settings: Mus musculus, 72 h, percentage of MBP+ oligodendrocytes; 3 days; 0.5 nM to 1000 nM; read-out: mOPC EC50
Method in brief: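 Mouse EpiSC-derived OPCs seeded without growth factors and exposed 3 days at 37° C. to 8-point doses, 1000 nM to 0.5 nM final. Fixed cells stained for MBP and DAPI; high-content imaging gave percentage MBP+ oligodendrocytes, with EC50 from Hill-equation fit.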

[1] = test system: zymostenol accumulation in EpiSC-derived OPCs (EBP); test: GC/MS-based sterol profiling, zymostenol accumulation; assay type: cell-based, mouse; settings: Mus musculus, 24 h, 8 doses from 0.15 nM to 333 nM, read-out: mZymo GCMS EC50
Method in brief: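 EpiSC-derived mouse OPCs plated at 100,000 cells/well in N2B27 without growth factors and treated 24 h. Sterols extracted, silylated with BSTFA and measured by GC/MS (EI, full scan), quantified against cholesterol-d7. Zymostenol normalized to levels after 24 h with 100 nM positive control reference.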

[2] = target: human emopamil binding protein and human 7-dehydrocholesterol reductase co-expressing cell membrane (Homo sapiens (Human), UniProt Q15125); test: hEBP-DHCR7 radioligand filtration binding assay with [3H]-Compound 118A*; settings: radioligand [3H]-Compound 118A*; HEK293 membrane co-expressing hEBP and DHCR7
Sequence of human emopamil binding protein and human 7-dehydrocholesterol reductase co-expressing cell membrane (Q15125 whole entry): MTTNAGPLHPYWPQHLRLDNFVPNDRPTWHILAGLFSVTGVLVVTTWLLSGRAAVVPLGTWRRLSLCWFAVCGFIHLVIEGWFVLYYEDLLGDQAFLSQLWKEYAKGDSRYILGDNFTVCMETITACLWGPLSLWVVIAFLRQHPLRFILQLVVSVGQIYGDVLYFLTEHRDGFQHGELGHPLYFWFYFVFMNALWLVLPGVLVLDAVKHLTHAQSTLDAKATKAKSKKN
Method in brief: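 HEK293 membranes transiently co-expressing hEBP and hDHCR7 (10 μg/well) were incubated with [3H]-Compound 118A* (added at 25 nM) and compounds (8 doses, final 0.06–5000 nM, n=2) for 3 h at 22 °C. Bound radioactivity was read after PEI-treated GF/B filtration. IC50 came from a Hill fit of % inhibition and was converted to Ki.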

| SMILES | EC50 (EpiSC-derived OPCs) [nM] | EC50 [1] [nM] | Ki [2] [nM] |
| --- | --- | --- | --- |
| O=S1(=O)CC2(CCN(CCOc3ccc([C@H]4CC[C@H](C(F)(F)F)CC4)nc3)CC2)C1 [247A*, 7-(2-((6-((trans)-4-(Trifluoromethyl)cyclohexyl)pyridin-3-yl)oxy)ethyl)-2-thia-7-azaspiro[3.5]nonane 2,2-dioxide] | 22.8 | 3.16 | 5.72 |
| CCC(C)(C)c1ccc(CC(C)CN2CCC3(CCS(=O)(=O)C3)C2)cc1 (stereo not drawn) [Compound 106] | 47 | 8.5 | 8.38 |
| O=S1(=O)CCC2(CC1)CN(CCOc1ccc(F)c(F)c1)C2 [Compound 214, 2-(2-(3,4-Difluorophenoxy)ethyl)-7-thia-2-azaspiro[3.5]nonane 7,7-dioxide] | 50.4 | 15 | 40.8 |
| O=S1(=O)CCC2(CC1)CN(CCOc1ccc(F)c(Cl)c1)C2 [Compound 219, 2-(2-(3-Chloro-4-fluorophenoxy)ethyl)-7-thia-2-azaspiro[3.5]nonane 7,7-dioxide] | 22.2 | 6.9 | 22.1 |
| O=S1(=O)CC2(CCN(CC3(Oc4ccc(C(F)(F)F)cc4)CCC3)CC2)C1 [Compound 222, 7-((1-(4-(Trifluoromethyl)phenoxy)cyclobutyl)methyl)-2-thia-7-azaspiro[3.5]nonane 2,2-dioxide] | 16 | 3.7 | 3.7 |
| O=S1(=O)CCC2(CC1)CN(CCCc1ccc(C(F)(F)F)nc1)C2 [Compound 223, 2-(3-(6-(Trifluoromethyl)pyridin-3-yl)propyl)-7-thia-2-azaspiro[3.5]nonane 7,7-dioxide] | 355 | 120 | 555 |
| O=S1(=O)CC2(CCN(CCCc3ccc(F)c(F)c3)CC2)C1 [Compound 225, 7-(3-(3,4-Difluorophenyl)propyl)-2-thia-7-azaspiro[3.5]nonane 2,2-dioxide] | 23.5 | 12.2 | 24.3 |
| O=S1(=O)CC2(CCN(CCOc3ccc(F)cn3)CC2)C1 [Compound 229, 7-(2-((5-Fluoropyridin-2-yl)oxy)ethyl)-2-thia-7-azaspiro[3.5]nonane 2,2-dioxide] | 135 | 34 | 110 |
| CC(C)n1nc(C(F)(F)F)cc1OCCN1CCC2(CC1)CS(=O)(=O)C2 [Compound 239] | 374 | 39.8 | 41.9 |
| O=S1(=O)CC2(CCN(CCOc3cnc(C4CCCCC4)c(Cl)c3)CC2)C1 [Compound 240, 7-[2-[(5-Chloro-6-cyclohexyl-3-pyridyl)oxy]ethyl]-26-thia-7-azaspiro[3.5]nonane 2,2-dioxide] | 346 | 75.5 | 1.96 |
| O=S1(=O)CC2(CCN(CCOc3cnc([C@H]4CC[C@H](C(F)(F)F)CC4)c(F)c3)CC2)C1 [Compound 249, 7-(2-((5-Fluoro-6-((trans)-4-(trifluoromethyl)cyclohexyl)pyridin-3-yl)oxy)ethyl)-2-thia-7-azaspiro[3.5]nonane 2,2-dioxide] | 74.1 | 25.6 | 31.6 |
| CC(C)(Cc1ccc(C(F)(F)F)cn1)CN1CCC2(C1)CS(=O)(=O)C2 [Example 150, 6-(2,2-Dimethyl-3-(5-(trifluoromethyl)pyridin-2-yl)propyl)-2-thia-6-azaspiro[3.4]octane-2,2-dioxide] | 25 | 4.9 | 29.9 |
| O=S1(=O)CC2(CCN(CC3(Oc4ccc(C(F)(F)F)cc4)CCCC3)CC2)C1 [Example 202, 7-((1-(4-(Trifluoromethyl)phenoxy)cyclopentyl)methyl)-2-thia-7-azaspiro[3.5]nonane 2,2-dioxide] | 220 | 42 | 14.7 |
| CC(C)(CN1CCC2(CC1)CS(=O)(=O)C2)Oc1ccc(C(F)(F)F)nc1 [Example 205, 7-(2-Methyl-2-((6-(trifluoromethyl)pyridin-3-yl)oxy)propyl)-2-thia-7-azaspiro[3.5]nonane 2,2-dioxide] | 24 | 5.6 | 19.4 |

These reach a lower EC50 (EpiSC-derived OPCs). Values come first.

| EC50 (EpiSC-derived OPCs) [nM] | EC50 [1] [nM] | Ki [2] [nM] | SMILES |
| --- | --- | --- | --- |
| 6.4 | 4 | 17.7 | CC(C)(CN1CCC2(C1)CS(=O)(=O)C2)Oc1ccc(C(F)(F)F)cc1 [Compound 120, 6-(2-Methyl-2-(4-(trifluoromethyl)phenoxy)propyl)-2-thia-6-azaspiro[3.4]octane 2,2-dioxide] |
| 4.7 | 5 | 12 | O=S1(=O)CC2(CCN(CCCc3ccc(OC(F)(F)F)cc3)CC2)C1 [Compound 213, 7-(3-(4-(Trifluoromethoxy)phenyl)propyl)-2-thia-7-azaspiro[3.5]nonane 2,2-dioxide] |
| 2.5 | 0.93 | 6.54 | O=S1(=O)CC2(CCN(CCOc3ccc(OC(F)(F)F)cc3)CC2)C1 [Compound 218, 7-(2-(4-(Trifluoromethoxy)phenoxy)ethyl)-2-thia-7-azaspiro[3.5]nonane 2,2-dioxide] |
| 2.2 | 0.88 | 9.29 | O=S1(=O)CC2(CCN(CCOc3ccc(C(F)(F)F)cc3)CC2)C1 [Compound 226, 7-(2-(4-(Trifluoromethyl)phenoxy)ethyl)-2-thia-7-azaspiro[3.5]nonane 2,2-dioxide] |
| 2.8 | 0.94 | 7.95 | O=S1(=O)CC2(CCN(CCOc3ccc(C(F)(F)F)c(F)c3)CC2)C1 [Compound 228, 7-(2-(3-Fluoro-4-(trifluoromethyl)phenoxy)ethyl)-2-thia-7-azaspiro[3.5]nonane 2,2-dioxide] |
| 0.9 | 0.32 | 7.31 | CC(C)(CN1CCC2(CC1)CS(=O)(=O)C2)Oc1ccc(Cl)c(F)c1 [Compound 231, 7-(2-(4-Chloro-3-fluorophenoxy)-2-methylpropyl)-2-thia-7-azaspiro[3.5]nonane 2,2-dioxide] |
| 5.7 | 1.5 | 13.2 | CC(C)(CN1CCC2(CC1)CS(=O)(=O)C2)Oc1cccc(C(F)(F)F)c1 [Compound 233, 7-(2-Methyl-2-(3-(trifluoromethyl)phenoxy)propyl)-2-thia-7-azaspiro[3.5]nonane 2,2-dioxide] |
| 3.89 | 2.64 | 17 | O=S1(=O)CC2(CCN(CCOc3ccnc(C(F)(F)F)c3)CC2)C1 [Compound 236, 7-(2-((2-(Trifluoromethyl)pyridin-4-yl)oxy)ethyl)-2-thia-7-azaspiro[3.5]nonane 2,2-dioxide] |
| 13.7 | 2.89 | 14.1 | O=S1(=O)CC2(CCN(CCOc3ccc(-c4ccc(C(F)(F)F)nc4)cc3)CC2)C1 [Compound 238, 7-(2-(4-(6-(Trifluoromethyl)pyridin-3-yl)phenoxy)ethyl)-2-thia-7-azaspiro[3.5]nonane 2,2-dioxide] |
| 2.62 | 1.26 | 12.2 | O=S1(=O)CC2(CCN(CCOc3cnc([C@H]4CC[C@H](C(F)(F)F)CC4)c(Cl)c3)CC2)C1 [Compound 246, 7-(2-((5-Chloro-6-((trans)-4-(trifluoromethyl)cyclohexyl)pyridin-3-yl)oxy)ethyl)-2-thia-7-azaspiro[3.5]nonane 2,2-dioxide] |
| 15 | 13 | 21.3 | CC(C)(CN1CCC2(C1)CS(=O)(=O)C2)Oc1cccc(F)c1 [Example 127, 6-(2-(3-Fluorophenoxy)-2-methylpropyl)-2-thia-6-azaspiro[3.4]octane-2,2-dioxide] |
| 6.3 | 1.6 | 24.6 | CC(C)(Cc1cncc(C(F)(F)F)c1)CN1CCC2(C1)CS(=O)(=O)C2 [Example 149, 6-(2,2-Dimethyl-3-(5-(trifluoromethyl)pyridin-3-yl)propyl)-2-thia-6-azaspiro[3.4]octane-2,2-dioxide] |
| 11 | 3.3 | 16 | CC(C)(Cc1ccc(C(F)(F)F)nc1)CN1CCC2(CC1)CS(=O)(=O)C2 [Example 152, 7-(2,2-Dimethyl-3-(6-(trifluoromethyl)pyridin-3-yl)propyl)-2-thia-7-azaspiro[3.5]nonane-2,2-dioxide] |
| 1.6 | 0.87 | 7.23 | CC(C)(Cc1ccc(C(F)(F)F)cc1)CN1CCC2(CC1)CS(=O)(=O)C2 [Example 153, 7-(2,2-Dimethyl-3-(4-(trifluoromethyl)phenyl)propyl)-2-thia-7-azaspiro[3.5]nonane-2,2-dioxide] |
| 2.9 | 2 | 10 | O=S1(=O)CC2(CCN(CCOc3ccc(F)c(F)c3)CC2)C1 [Example 158, 7-(2-(3,4-Difluorophenoxy)ethyl)-2-thia-7-azaspiro[3.5]nonane 2,2-dioxide] |
| 6.8 | 2.3 | 28.9 | O=S1(=O)CC2(CCN(CCOc3ccc(F)cc3F)CC2)C1 [Example 204, 7-(2-(2,4-Difluorophenoxy)ethyl)-2-thia-7-azaspiro[3.5]nonane 2,2-dioxide] |
| 3.2 | 1.5 | 13.2 | O=S1(=O)CC2(CCN(CCOc3ccc(Cl)c(F)c3)CC2)C1 [Example 206, 7-(2-(4-Chloro-3-fluorophenoxy)ethyl)-2-thia-7-azaspiro[3.5]nonane 2,2-dioxide] |
